In US12128016B2, “Vanin-1 inhibitor” (EDUCATIONAL FOUNDATION OF OSAKA MEDICAL AND PHARMACEUTICAL …, priority 2021, dated 2024):

Experiments:
[1] = molecular target: T1, Vanin-1 (Homo sapiens, UniProt O95497); experiment: In vitro measurement of Vanin-1 inhibitory activity, screening using human serum with Pantothenate-AMC substrate; assay type: biochemical; settings: for IC50: 37° C., 30 minutes incubation, Pantothenate-AMC; for Vanin-1 inhibitory activity relative to that of Comparative Example 1: ratio to Comparative Example 1
T1 construct: For use as human serum, “normal human serum” was purchased from KOHJIN BIO (product number: 12181211); tissue KOHJIN BIO 12181211; host or cells: normal human serum
T1 sequence (O95497 22-491): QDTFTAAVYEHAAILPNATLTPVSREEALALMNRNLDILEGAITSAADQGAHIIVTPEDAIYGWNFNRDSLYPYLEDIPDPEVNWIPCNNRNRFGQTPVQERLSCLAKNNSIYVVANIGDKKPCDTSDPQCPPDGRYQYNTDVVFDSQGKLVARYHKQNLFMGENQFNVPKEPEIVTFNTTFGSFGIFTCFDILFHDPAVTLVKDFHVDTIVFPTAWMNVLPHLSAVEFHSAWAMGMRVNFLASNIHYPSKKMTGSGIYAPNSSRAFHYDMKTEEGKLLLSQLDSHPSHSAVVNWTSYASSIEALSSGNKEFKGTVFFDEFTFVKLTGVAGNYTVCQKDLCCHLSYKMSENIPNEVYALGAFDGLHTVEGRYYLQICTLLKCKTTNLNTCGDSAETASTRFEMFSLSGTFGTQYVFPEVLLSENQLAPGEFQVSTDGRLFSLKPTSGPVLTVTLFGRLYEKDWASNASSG
Procedure: The pantotheine ketone derivatives obtained in Examples 1 to 5 and Comparative Examples 1 to 9 were used as a Vanin-1 inhibitor to measure Vanin-1 inhibitory activity in vitro as follows.
A 9 g/package phosphate buffer powder (1/15 molL^−1=66 mM, Wako Pure Chemical) was dissolved in 1 L of distilled water to produce an assay buffer. Pantothenate-AMC serving as a substrate was synthesized according to protocols as described in Analytical Biochemistry 2010; 399: 284-292. For use as human serum, “normal human serum” was purchased from KOHJIN BIO (product number: 12181211).
Vanin-1 inhibitory activity was measured in accordance with the following steps 1 to 8 of: • 1. introducing 79 μL of assay buffer in a 96-well black plate, • 2. adding 10 μL of human serum to the wells containing the assay buffer, • 3. adding 1 μL of each Vanin-1 inhibitor (10^−7 M to 10^−2 M in DMSO) or 1 μL of DMSO to the wells from the step [2.], • 4. adding 10 μL of 1 mM Pantothenate-AMC to the wells from the step [3.], • 5. measuring at Ex=390 nm and Ex=465 nm before incubation, • 6. incubating at 37° C. for 30 minutes, • 7. measuring at Ex=390 nm and Ex=465 nm, • 8. subtracting fluorescence after 0 minute incubation, from fluorescence after 30 minutes incubation, to express Vanin-1 inhibitory activity of each inhibitor in percent with respect to that of DMSO being 100%. (Results)

[2] = test system: Vanin-1; experiment: In vivo measurement of Vanin-1 inhibitory activity in sera and kidney tissues using hamsters; set-up: species or system Syrian hamsters; settings: hamster, 10 mg/kg subcutaneous injection; for Vanin-1 activity in kidney tissue extracts 1 hour after administration / Vanin-1 activity in kidney tissue extracts 4 hours after administration: kidney tissue extract; for Vanin-1 activity in kidney tissue extracts 1 hour after administration: 1 hour (FIG. 5b); for Vanin-1 activity in kidney tissue extracts 4 hours after administration: 4 hours (FIG. 5b); for Vanin-1 activity in sera 1 hour after administration / Vanin-1 activity in sera 4 hours after administration: serum; for Vanin-1 activity in sera 1 hour after administration: 1 hour (FIG. 5a); for Vanin-1 activity in sera 4 hours after administration: 4 hours (FIG. 5a)
Procedure: The pantotheine ketone derivatives obtained in Example 1 and Comparative Example 1 were used as a Vanin-1 inhibitor to measure Vanin-1 inhibitory activity in vivo as follows.
An assay buffer and substrate were the same as those used in the in vitro measurement of activity described above. Hamsters used were 6-week-old male Syrian hamsters purchased from Japan SLC.
The pantotheine ketone derivatives of Example 1 and Comparative Example 1 at a dose of 10 mg/kg were each administered by subcutaneous injection in the backs of different hamsters, and 1 hour and 4 hours after the administration, blood collection and kidney removal were performed under anesthesia. The blood and kidney of the normal hamsters were indicated as Normal. The blood was refrigerated overnight at 4° C. and then centrifuged at 3000 rpm for 20 minutes at 4° C., and the supernatant was used as serum. The kidney was homogenized in an assay buffer in an amount 10 times the tissue weight, and centrifuged at 8000 rpm for 30 minutes at 4° C., and the supernatant was used as a kidney tissue extract. Proteins in the kidney tissue were quantified by using a BCA protein assay (Thermo Fishers Scientific).
Vanin-1 inhibitory activity was measured in accordance with the following steps 1 to 7 of: • 1. introducing 80 μL of assay buffer in a 96-well black plate, • 2. adding 10 μL of serum or kidney tissue extract to the wells containing the assay buffer, • 3. adding 10 μL of 1 mM Pantothenate-AMC to the wells from the step [2.], • 4. measuring at Ex=390 nm and Ex=465 nm before incubation, • 5. incubating at 37° C. for 30 minutes, • 6. measuring at Ex=390 nm and Ex=465 nm, • 7. subtracting fluorescence after 0 minute incubation, from fluorescence value after 30 minutes incubation, and calculating enzyme unit (U) using as an index the amount of AMC produced per minute with respect to the fluorescence value of 40 μM AMC as a reference. The Vanin-1 activity in the kidney tissue extracts was further calculated to normalize by the protein concentration. (Results)

[3] = test system: vascular intimal thickening after aorta transplantation; settings: rat; 3 mg/mL in drinking water (Non-patent literature 2); cited from earlier work

Row | Structure (SMILES) | Vanin-1 inhibitory activity in vitro (comparison in words, FIGS. 1 to 4) [1] | IC50 [1] | Vanin-1 inhibitory activity relative to that of Comparative Example 1 [1] | Vanin-1 activity in kidney tissue extracts 1 hour after administration [2] | Vanin-1 activity in kidney tissue extracts 4 hours after administration [2] | Vanin-1 activity in sera 1 hour after administration [2] | Vanin-1 activity in sera 4 hours after administration [2] | Effect on vascular intimal thickening after aorta transplantation [3]
1 | C/C(O)=C/C(=O)CCNC(=O)[C@H](O)C(C)(C)CO [Comparative Example 8] | lower than that of Comparative Example 1 |  |  |  |  |  |  | 
2 | CC(C)(CO)[C@@H](O)C(=O)NCCC(=O)Cc1ccc(OC(F)(F)F)cc1 [Example 1, (R)-2,4-dihydroxy-3,3-dimethyl-N-[3-oxo-4-(4-trifluoromethoxyphenyl)butyl]butanamide] | very high Vanin-1 inhibitory activity | 35 nM | about 20 times | able to inhibit Vanin-1 | returned to the normal value | suppressed Vanin-1 activity lower than that of Comparative Example 1 | suppressed below the normal value | 
3 | CC(C)(CO)[C@@H](O)C(=O)NCCC(=O)Cc1ccccc1 [Comparative Example 1, reference compound] |  | 780 nM |  | same as the normal value | same as the normal value | suppressed | returned to normal value | suppressive effect on vascular intimal thickening
4 | CC(C)(CO)[C@@H](O)C(=O)NCCC(=O)Cc1cccc2ccccc12 [Comparative Example 7] | lower than that of Comparative Example 1 |  |  |  |  |  |  | 
5 | CC(C)(CO)[C@@H](O)C(=O)NCCC(=O)Cc1ccc2ccccc2c1 [Comparative Example 6] | lower than that of Comparative Example 1 |  |  |  |  |  |  | 
6 | CC(C)(CO)[C@@H](O)C(=O)NCCC(=O)Cc1ccc(F)cc1 [Example 2] | very high Vanin-1 inhibitory activity | 120 nM | about 6 times |  |  |  |  | 
7 | C=C=CC(=O)CCNC(=O)[C@H](O)C(C)(C)CO [Comparative Example 9] | lower than that of Comparative Example 1 |  |  |  |  |  |  | 
